# Measured values published in paper PMC10137179, “Assessment of Covalently Binding Warhead Compounds in the Validation of the Cytomegalovirus Nuclear Egress Complex as an Antiviral Target” (Cells, 2023).
# Legend:
# HCMV AD169-GFP = assay: microbe, parasite or virus in culture; type: cell-based, human cytomegalovirus (HCMV); conditions: Human betaherpesvirus 5, AD169, 168 h, clinically relevant warheads, 0.1 µM to 50 µM, AD169-GFP-infected HFFs, 7 d p.i.
# Method: Cytotoxicity of the analyzed compounds was determined by the Neutral Red dye uptake assay. A total of 1.35 × 10^5 HFFs per well were seeded in 96-well plates 1 d prior to analysis, cultivated overnight until cells were confluent and then incubated with compounds for 7 days. The assay was performed as described previously using 40 μg/mL Neutral Red (Sigma Aldrich). The quantity of dye incorporation was determined using the Victor X4 microplate reader (PerkinElmer, Waltham, MA, USA) by fluorescence measurement at 560/630 nm for excitation/emission, respectively. To assess antiviral activity of compounds, HFFs seeded in 96-well plates (1.35 × 10^5 HFFs per well) were infected with HCMV AD169-GFP or TB40-IE2-YFP to reach 25–50% infected cells at 7 days post-infection (d p.i.). After incubation with the infectious inoculum for 1.5 h at 37 °C, compounds were added in serial dilutions. At 7 d p.i., cells were fixed for 10 min at room temperature using 10% formalin. Finally, cells were washed once with PBS followed by automated fluorescence quantitation.
# Seeking for a novel group of potential antiviral agents, small molecules with covalent protein-binding activity were investigated. These small molecules, originally developed as kinase inhibitors, carry a so-called warhead moiety as an important functional group, such as the prototype afatinib (Figure 1A, red circle). In this study, a series of newly generated warhead compounds (most of which are the property of B.K./Lead Discovery Center, Dortmund, Germany) were used for an evaluation of putative antiviral and core NEC-inhibitory properties. In a first step, the antiviral activity of warheads was analyzed against HCMV TB40-IE2-YFP (Figure 1B) and AD169-GFP (Figure 1C). To this end, HFFs were infected with either of the two viral strains before the GFP or YFP reporter signals were measured at 7 d p.i. (in parallel, putative compound cytotoxicity was determined by Neutral Red assay). The HCMVs AD169-GFP and TB40-IE2-YFP, based on BAC-derived recombinants of the laboratory strains AD169 and TB40, respectively, were both propagated on HFFs, and the produced stocks were then used as two reporter viruses for the assessement of antiviral drug activity. While strain AD169 is mainly restricted in its tropism to fibroblasts, TB40 tropism can be extended to fibroblasts and epithelial and endothelial cells. Here, the use of two strains was intended to illustrate the assumption that antiviral activity of these warhead compounds may be directed to conserved viral target proteins, thus pointing out a minor impact of strains.
# (A) Chemical structure of a clinically approved prototype of covalently binding warhead inhibitors, […], afatinib/Gilotrif®. The red circle identifies a functionally active α-, β-unsaturated carbonyl group. (B) At 7 d p.i., compounds were analyzed for their cytotoxicity (orange) and antiviral activity (blue) during HCMV infection, using TB40-IE2-YFP as a reporter virus. Cell viability was assessed through Neutral Red staining of uninfected cells. Measurements were performed in quadruplicate (YFP fluorometry) or triplicate (Neutral Red assay), and standard deviations of mean values are given; EC50, CC50 and SI values are indicated accordingly. (C) In a parallel series of analyses, HCMV AD169-GFP was used as another reporter virus representing a second viral strain. […] HCMV AD169-GFP-infected HFFs were treated with 0.1 µM to 50 µM of the compounds (in parallel Neutral Red assay, 0.1 µM to 100 µM), before the signal assessments were performed at 7 d p.i.
# [1] = molecular target: T1, pUL50–pUL53 interaction (LgBiT::UL53(1–87)-Flag + SmBiT::UL50-HA) (Human cytomegalovirus, UniProt P16791); type: cell-based; conditions: 293T cells, 5×, 1× or 0.2× anti-HCMV EC50 levels, truncated LgBiT::UL53(1–87)-Flag
# T1 construct: expressed in transfected cells; host or cells: 293T
# pUL50-HA + pUL53-Flag = molecular target: T2, pUL50-HA + pUL53-Flag (Human cytomegalovirus, UniProt P16791); assay: Coimmunoprecipitation (CoIP) of pUL50-HA and pUL53-Flag from cotransfected 293T cells; type: binding, HCMV; conditions: serial concentrations, mostly at 20–40 µM; added 24 h p.t. or after cell lysis
# T2 construct: expressed in transfected cells; host or cells: 293T
# Method: For CoIP analysis, 293T cells were seeded in 10 cm dishes with a density of 5 × 10^6 cells and used for transient transfection with expression plasmids. Then, 2–3 days post-transfection (d p.t.), CoIP was performed as described previously, using mAb-HA (H9658, Sigma-Aldrich, St. Louis, MO, USA). In brief, cells were lysed in 500 μL CoIP buffer (50 mM Tris/HCl (pH 8.0), 150 mM NaCl, 5 mM EDTA, 0.5% NP-40, 1 mM PMSF, 2 μg/mL aprotinin, 2 μg/mL leupeptin and 2 μg/mL pepstatin). Subsequently, total lysates were incubated with antibody-coated (2 μL of tag-specific or control antibodies) Dynabeads® Protein A (30 μL per sample; Life Technologies, Carlsbad, CA, USA) for 2 h at 4 °C under rotation. The precipitates were washed five times with 1 mL of CoIP buffer. CoIP samples and lysate controls were taken prior to the addition of the CoIP antibody. SDS-PAGE and standard Western blot analysis of cell lysates was performed using equal protein amounts as described previously. […]
# In both cases, total lysates were prepared at 48 h p.t., and the CoIP analysis was performed under continued drug treatment (Figure S3). The protein applied as the basis for IP (using tag-specific mAb-HA) was pUL50-HA, and pUL53-Flag was detected as the CoIP partner. […]
# T1 sequence (P16791 whole entry, the tested form may be a part): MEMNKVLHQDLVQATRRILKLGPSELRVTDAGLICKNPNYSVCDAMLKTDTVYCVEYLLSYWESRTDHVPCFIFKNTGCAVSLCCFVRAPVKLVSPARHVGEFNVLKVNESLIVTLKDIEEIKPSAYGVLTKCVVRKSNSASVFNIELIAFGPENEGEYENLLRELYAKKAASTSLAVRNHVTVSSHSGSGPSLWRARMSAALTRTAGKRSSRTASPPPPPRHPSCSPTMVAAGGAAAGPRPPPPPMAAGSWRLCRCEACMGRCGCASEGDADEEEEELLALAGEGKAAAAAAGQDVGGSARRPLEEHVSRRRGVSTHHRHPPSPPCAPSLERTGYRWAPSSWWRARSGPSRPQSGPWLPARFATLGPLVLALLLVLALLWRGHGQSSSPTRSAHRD
# T2 sequence (P16791 whole entry): as the sequence (P16791 whole entry, the tested form may be a part) above
smiles,measurement,setting,value
C=CC(=O)N1CCC[C@@H](n2nc(-c3ccc(Oc4ccccc4)cc3)c3c(N)ncnc32)C1 [ibrutinib],EC50,HCMV AD169-GFP,16 ± 6 µM
same,inhibitory effect on NanoBiT interaction signal (in words),[1],"most prominent, dose-dependent reduction in the measured interaction signal"
same,coimmunoprecipitated pUL53-Flag (in words),pUL50-HA + pUL53-Flag,trend of a reduction in coimmunoprecipitated pUL53-Flag
